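Values below derive from 48-hour exposures of cells grown in 96-well plates, with endpoints linearly interpolated between the two concentrations bracketing the appropriate inhibition level. The concentration for 50% growth inhibition is given as GI50.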 Calls of active or inactive are those of the source. Cut-off read from the data, not from the text of the source: active = GI50 up to about 1.1 µM and inactive = higher.
Experiments:
Assay in all cases: inhibition of tumour cell growth, NCI panel, 48 h
SK-MEL-2 = test system: SK-MEL-2
UACC-257 = test system: UACC-257
HOP-62 = test system: HOP-62
SF-268 = test system: SF-268
MOLT-4 = test system: MOLT-4
RXF 393 = test system: RXF 393
Hs-578T = test system: Hs-578T
HCC 2998 = test system: HCC 2998
U-251 = test system: U-251
MDA-N = test system: MDA-N
SK-MEL-28 = test system: SK-MEL-28
OVCAR-3 = test system: OVCAR-3
K562 = test system: K562
SF-295 = test system: SF-295
KM12 = test system: KM12
COLO 205 = test system: COLO 205
SF-539 = test system: SF-539
NCI-H226 = test system: NCI-H226
OVCAR-8 = test system: OVCAR-8
SN12C = test system: SN12C
HT-29 = test system: HT-29
786-0 = test system: 786-0
A498 = test system: A498
HCT-116 = test system: HCT-116
LOX IMVI = test system: LOX IMVI
PC-3 = test system: PC-3
OVCAR-5 = test system: OVCAR-5
RPMI-8226 = test system: RPMI-8226
Malme-3M = test system: Malme-3M
SK-MEL-5 = test system: SK-MEL-5
TK-10 = test system: TK-10
HL-60 = test system: HL-60
ACHN = test system: ACHN
MDA-MB-231 = test system: MDA-MB-231
NCI-H522 = test system: NCI-H522
MDA-MB-435 = test system: MDA-MB-435
DU-145 = test system: DU-145
NCI-H460 = test system: NCI-H460
IGROV-1 = test system: IGROV-1
SNB-75 = test system: SNB-75
T47D = test system: T47D
NCI/ADR-RES = test system: NCI/ADR-RES
MCF7 = test system: MCF7
CAKI-1 = test system: CAKI-1
M14 = test system: M14
NCI-H23 = test system: NCI-H23
A549 = test system: A549
UO-31 = test system: UO-31
SW-620 = test system: SW-620
SR = test system: SR
CCRF-CEM = test system: CCRF-CEM
HCT-15 = test system: HCT-15
BT-549 = test system: BT-549
SNB-19 = test system: SNB-19
SK-OV-3 = test system: SK-OV-3
UACC-62 = test system: UACC-62
HOP-92 = test system: HOP-92
OVCAR-4 = test system: OVCAR-4
EKVX = test system: EKVX

Measured: GI50

O=C(O)C12C3CCC(CC3)C1(C(=O)O)C1CCC2C1 (centres undefined)
> 100 µM: HCT-15
active: SR < 0.01 µM
inactive: SK-MEL-2 > 100 µM | UACC-257 > 100 µM | HOP-62 > 100 µM | SF-268 > 100 µM | MOLT-4 > 100 µM | RXF 393 > 100 µM | Hs-578T > 100 µM | HCC 2998 > 100 µM | U-251 > 100 µM | MDA-N > 100 µM | SK-MEL-28 > 100 µM | OVCAR-3 > 100 µM | K562 > 100 µM | SF-295 > 100 µM | KM12 > 100 µM | COLO 205 > 100 µM | SF-539 > 100 µM | NCI-H226 > 100 µM | OVCAR-8 > 100 µM | SN12C > 100 µM | HT-29 > 100 µM | 786-0 > 100 µM | A498 > 100 µM | HCT-116 > 100 µM | LOX IMVI > 100 µM | PC-3 > 100 µM | OVCAR-5 > 100 µM | RPMI-8226 > 100 µM | Malme-3M > 100 µM | SK-MEL-5 > 100 µM | TK-10 > 100 µM | HL-60 > 100 µM | ACHN > 100 µM | MDA-MB-231 > 100 µM | NCI-H522 86.1 µM | MDA-MB-435 > 100 µM | DU-145 > 100 µM | NCI-H460 > 100 µM | IGROV-1 > 100 µM | SNB-75 > 100 µM | T47D > 100 µM | NCI/ADR-RES > 100 µM | MCF7 > 100 µM | CAKI-1 > 100 µM | M14 > 100 µM | NCI-H23 > 100 µM | A549 > 100 µM | UO-31 > 100 µM | SW-620 > 100 µM | CCRF-CEM > 100 µM | BT-549 > 100 µM | SNB-19 > 100 µM | SK-OV-3 > 100 µM | UACC-62 > 100 µM

N#Cc1nc(-c2ccccn2)c(-c2ccccn2)nc1C#N
active: SF-295 0.811 µM | NCI-H226 0.593 µM | 786-0 0.515 µM | HCT-116 0.624 µM | LOX IMVI 1.03 µM | ACHN 1.11 µM | NCI-H460 0.47 µM | UACC-62 0.47 µM
0.682 µM: HCT-15
inactive: SK-MEL-2 3.59 µM | HOP-92 7.96 µM | UACC-257 3.65 µM | HOP-62 1.74 µM | SF-268 1.25 µM | MOLT-4 4.19 µM | RXF 393 3.58 µM | Hs-578T 11.2 µM | HCC 2998 3.66 µM | U-251 2.32 µM | MDA-N 2.61 µM | SK-MEL-28 3.96 µM | OVCAR-3 3.79 µM | K562 5.85 µM | KM12 2.52 µM | COLO 205 1.97 µM | SF-539 4.19 µM | OVCAR-8 2.64 µM | SN12C 4.82 µM | HT-29 2.82 µM | A498 2.09 µM | PC-3 4.88 µM | OVCAR-5 3.32 µM | RPMI-8226 2.83 µM | Malme-3M 1.45 µM | SK-MEL-5 1.85 µM | TK-10 1.82 µM | MDA-MB-231 10.7 µM | NCI-H522 1.64 µM | MDA-MB-435 2.7 µM | DU-145 2.32 µM | OVCAR-4 1.79 µM | IGROV-1 1.43 µM | SNB-75 8.05 µM | EKVX 3.15 µM | T47D 1.69 µM | NCI/ADR-RES 1.8 µM | MCF7 1.22 µM | CAKI-1 2.04 µM | M14 1.59 µM | NCI-H23 2.9 µM | A549 1.14 µM | UO-31 1.3 µM | SW-620 3.08 µM | SR 1.82 µM | CCRF-CEM 2.69 µM | BT-549 2.36 µM | SNB-19 4.1 µM | SK-OV-3 1.6 µM

From ChEMBL document CHEMBL1201862, “PubChem BioAssay data set” (2004)
